The text below walks through data of patent publication US12503444B2, “Compound containing benzene ring and application thereof” (WUHAN LL SCIENCE AND TECHNOLOGY DEVELOPMENT CO., LTD., priority 2019, dated 2025).

pIC50: −log10 of the molar value. Read-outs that look alike come from different tables or passages of the source.

Series [1] is described as follows: In vitro metabolic stability, liver microsome incubation (human). Particulars: human, liver microsomes; 1 mg/mL liver microsome protein, 37° C.; read-out: T1/2 in human liver microsome min. It is filed as in vitro ADME. The protocol:
The in vitro metabolic stability of the compounds disclosed herein was determined through incubation of liver microsomes of various species. A proper amount of test compound was added into a liver microsome reaction system (1 mg/mL liver microsome protein, 25 U/mL glucose-6 phosphate dehydrogenase, 1 mM NADP, 6 mM D-glucose 6-phosphate and 5 mM MgCl2), and then the mixture was incubated in a water bath kettle at 37° C. to start the reaction. At each time point, 100 μL of the reaction system was added into a centrifuge tube containing 400 μL of internal standard working solution (containing a 200 ng/mL solution of dexamethasone, diclofenac, tolbutamide and labetalol in acetonitrile) precooled at 0° C. so as to stop the reaction, and the mixture was then centrifuged at 10,000 g for 10 min at 4° C. The supernatant was collected for LC-MS assay so as to obtain the values of in vitro metabolic half-life of the test compounds in liver microsomes of various species.
Background: Liver microsomes are vesicles of endoplasmic reticulum, rich in cytochrome P450 enzymes.

In series [2] the target is T1, hP2X4 (human purinergic P2X receptor subtype 4) (Homo sapiens, UniProt Q99571).
T1 sequence (Q99571 1-404 isoform Q99571-2): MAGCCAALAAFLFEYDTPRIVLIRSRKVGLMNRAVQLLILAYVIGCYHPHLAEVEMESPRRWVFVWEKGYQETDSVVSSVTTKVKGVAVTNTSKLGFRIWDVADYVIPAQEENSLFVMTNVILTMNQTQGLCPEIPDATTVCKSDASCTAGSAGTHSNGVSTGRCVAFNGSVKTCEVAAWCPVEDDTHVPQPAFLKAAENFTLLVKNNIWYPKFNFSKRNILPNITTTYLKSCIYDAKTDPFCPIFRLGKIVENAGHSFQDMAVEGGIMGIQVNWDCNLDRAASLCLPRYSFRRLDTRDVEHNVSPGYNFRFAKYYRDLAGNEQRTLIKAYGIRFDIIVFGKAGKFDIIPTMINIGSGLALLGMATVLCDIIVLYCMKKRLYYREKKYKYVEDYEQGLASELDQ
Briefly: FLIPR assay of intracellular calcium increase induced by activation of hP2X4 expressed in HEK293 cells (agonist BZ-ATP 2.5 μM). It is filed as cell-based. Conditions: HEK293 cells stably expressing hP2X4, FLIPR, read-out: P2X4 IC50. The protocol: The antagonist property of the compounds disclosed herein was determined using the FLIPR (fluorescence imaging plate reader) method, wherein the compounds are inhibitors for the intracellular calcium increase induced by activation of hP2X4 (human purinergic P2X receptor subtype 4, accession No. NM_001256796.2) expressed in HEK293 cells (human renal epithelial cell line, ATCC).
HEK293 cells stably expressing hP2X4 were cultured in DMEM high glucose medium containing 10% FBS (fetal bovine serum, Biosera, FB-1058/500), 1% penicillin-streptomycin (Gibco, 15140-122) and 1 mg/mL G418 (CABIOCHE, 345810) in a cell incubator (37° C., […]). Cells at 400,000 cells/mL were seeded into a 384-well plate (10,000 cells/well) 18-24 h prior to the FLIPR experiment and then incubated overnight in a cell incubator. On the day of the experiment, the medium was discarded and the cells were washed in an FLIPR buffer (0.3 mL of probenecid (Thermo, P36400), 0.6 mL of 1 M HEPES (Invitrogen, 15630080) and 29.1 mL of HBSS (Invitrogen, 14065056) per 30 mL of the buffer). Each well was added with 20 μL of 0.5× Calcium 6 fluorescent dye (Molecular Devices, R8190) and then the cells were subjected to dye-loading incubation at 37° C. for 1.5 h. Each well was added with 10 μL of respective test compound (dissolved in DMSO at a concentration of 10 mM and serially diluted with buffer) or vehicle and the mixture was equilibrated for 30 min at room temperature. The cell plate was then placed in the FLIPR for baseline fluorescence measurements (excitation at 485 nm and emission at 525-535 nm). An agonist (BZ-ATP (Sigma, B6396) at a final concentration of 2.5 μM) or a vehicle (ultrapure water) was then added at 10 μL/well, fluorescence values were measured for 2 min at 1-second intervals, and finally the output fluorescence counts were analyzed.

The term pIC50 denotes the negative decadic logarithm of the IC50, by convention in mol/L. For the molecule `NS(=O)(=O)c1cc(NC(=O)Cc2ccccc2Cl)cc2nn(CC3CCC3)cc12` [Compound 24-A, 2-(2-chlorophenyl)-N-(2-(cyclobutylmethyl)-4-sulfamoyl-2H-indazol-6-yl)acetamide], the half-life in series [1] was 1.08 h. The pIC50 in series [2] (numeric values) is 8.80.

As for `CC(C)Cn1cc2c(S(N)(=O)=O)cc(NC(=O)Cc3ccccc3Cl)cc2n1` [Compound 7-A, 2-(2-chlorophenyl)-N-(2-isobutyl-4-sulfamoyl-2H-indazol-6-yl)acetamide], the half-life in series [1] stood at 0.988 h. Besides, in series [2] (numeric values), the pIC50 is 8.32.

Consider `NS(=O)(=O)c1cc(NC(=O)Cc2ccccc2Cl)cc2c1cnn2CC(F)F` [Compound 12-B, 2-(2-chlorophenyl)-N-(1-(2,2-difluoroethyl)-4-sulfamoyl-1H-indazol-6-yl)acetamide], for which the half-life in series [1] worked out at 0.301 h. Also, the pIC50 in series [2] (numeric values) is 7.66.

Consider `Cn1ncc2c(S(N)(=O)=O)cc(NC(=O)Cc3ccccc3Cl)cc21` [Compound 3-B, 2-(2-chlorophenyl)-N-(1-methyl-4-sulfamoyl-1H-indazol-6-yl)acetamide], for which, in series [1], the half-life amounted to 2.58 h. For the same molecule, the pIC50 in series [2] (numeric values) is 8.20.

For the molecule `Nc1ccc(Cn2ncc3c(S(N)(=O)=O)cc(NC(=O)Cc4ccccc4Cl)cc32)cn1` [Compound 101A, N-(1-((6-aminopyridin-3-yl)methyl)-4-sulfamoyl-1H-indazol-6-yl)-2-(2-chlorophenyl)acetamide], the half-life in series [1] came out at 1.19 h. The pIC50 in series [2] (class symbols) is 7.30 to 8.00.

In the case of `CC(C)C(C)n1cc2c(S(N)(=O)=O)cc(NC(=O)Cc3ccccc3Cl)cc2n1` (stereo not drawn) [Compound 10, 2-(2-chlorophenyl)-N-(2-(3-methylbutan-2-yl)-4-sulfamoyl-2H-indazol-6-yl)acetamide], in series [1], the half-life amounted to 0.408 h. Also, in series [2] (class symbols), the pIC50 is 7.30 to 8.00.

Regarding `COc1ccc(Cn2cc3c(S(N)(=O)=O)cc(NC(=O)Cc4ccccc4Cl)cc3n2)nc1` [Compound 93], the pIC50 in series [2] (class symbols) is no less than 8.00.

With `NS(=O)(=O)c1cc(NC(=O)Cc2ccccc2Cl)cc2c1c(Cl)nn2-c1ccc(F)cc1` [Compound 75, N-(3-chloro-1-(4-fluorophenyl)-4-sulfamoyl-1H-indazol-6-yl)-2-(2-chlorophenyl)acetamide], in series [2] (class symbols), the pIC50 was 5.30 to 6.70.

Consider `CC(C)(C)n1cc2c(S(N)(=O)=O)cc(NC(=O)Cc3ccccc3Cl)cc2n1` [Compound 9, 2-(2-chlorophenyl)-N-(2-(tert-butyl)-4-sulfamoyl-2H-indazol-6-yl)acetamide], for which the pIC50 in series [2] (class symbols) was no less than 8.00.

`CC(c1ccc(F)cc1)n1cc2c(S(N)(=O)=O)cc(NC(=O)Cc3ccccc3Cl)cc2n1` (stereo not drawn) [Compound 40-A, 2-(2-chlorophenyl)-N-(2-(1-(4-fluorophenyl)ethyl)-4-sulfamoyl-2H-indazol-6-yl)acetamide]: in series [2] (class symbols), the pIC50 is 7.30 to 8.00.

Take `NS(=O)(=O)c1cc(NC(=O)Cc2ccccc2Cl)cc2nn(Cc3ccc(C(F)(F)F)cc3)cc12` [Compound 90, 2-(2-chlorophenyl)-N-(4-sulfamoyl-2-(4-(trifluoromethyl)benzyl)-2H-indazol-6-yl)acetamide]: in series [2] (class symbols), the pIC50 was no less than 8.00.

Consider `NS(=O)(=O)c1cc(NC(=O)Cc2ccccc2Cl)cc2cnn(C(F)F)c12` [Compound 50, 2-(2-chlorophenyl)-N-(1-(difluoromethyl)-7-sulfamoyl-1H-indazol-5-yl)acetamide], for which the pIC50 in series [2] (class symbols) is 6.70 to 7.30.

Take `NS(=O)(=O)c1cc(NC(=O)Cc2ccccc2Cl)cc2c1CN(Cc1ccc(F)cc1)C2` [Compound 132, 2-(2-chlorophenyl)-N-(2-(4-fluorobenzyl)-7-sulfamoyliodo-5-yl)acetamide]: in series [2] (class symbols), the pIC50 was 5.30 to 6.70.

As for `NS(=O)(=O)c1cc(NC(=O)Cc2ccccc2Cl)cc2c1cnn2CCN1CCOCC1` [Compound 118A, 2-(2-chlorophenyl)-N-(1-(2-morpholinoethyl)-4-sulfamoyl-1H-indazol-6-yl)acetamide], the pIC50 in series [2] (class symbols) is 5.30 to 6.70.

Regarding `CC(C)(C1CC1)n1cc2c(S(N)(=O)=O)cc(NC(=O)Cc3ccccc3Cl)cc2n1` [Compound 21, 2-(2-chlorophenyl)-N-(2-(2-cyclopropylpropan-2-yl)-4-sulfamoyl-2H-indazol-6-yl)acetamide], in series [2] (class symbols), the pIC50 is 7.30 to 8.00.

With `CC1(N2Cc3cc(NC(=O)Cc4ccccc4Cl)cc(S(N)(=O)=O)c3C2)COC1` [Compound 130, 2-(2-chlorophenyl)-N-(2-(3-methyloxetan-3-yl)-7-sulfamoylisoindolin-5-yl)acetamide], in series [2] (class symbols), the pIC50 was 5.30 to 6.70.

With `CC(C)NCCn1cc2c(S(N)(=O)=O)cc(NC(=O)Cc3ccccc3Cl)cc2n1` [Compound 29, 2-(2-chlorophenyl)-N-(2-(2-(isopropylamino)ethyl)-4-sulfamoyl-2H-indazol-6-yl)acetamide], the negative-log IC50 (pIC50) in series [2] (class symbols) was 7.30 to 8.00.

For `CC(C)C1(n2cc3c(S(N)(=O)=O)cc(NC(=O)Cc4ccccc4Cl)cc3n2)CC1` [Compound 17, 2-(2-chlorophenyl)-N-(2-(1-isopropylcyclopropyl)-4-sulfamoyl-2H-indazol-6-yl)acetamide], the pIC50 in series [2] (class symbols) was 7.30 to 8.00.

Turning to `CC(C)n1cc2c(S(N)(=O)=O)cc(NC(=O)Cc3ccccc3Cl)cc2n1` [Compound 6-A, 2-(2-chlorophenyl)-N-(2-isopropyl-4-sulfamoyl-2H-indazol-6-yl)acetamide], in series [2] (numeric values), the pIC50 was 8.94.

In the case of `NS(=O)(=O)c1cc(NC(=O)Cc2ncccc2Cl)cc2nn(C(F)F)cc12` [Compound 113, 2-(3-chloropyridin-2-yl)-N-(2-(difluoromethyl)-4-sulfamoyl-2H-indazol-6-yl)acetamide], in series [2] (class symbols), the pIC50 was 5.30 to 6.70.

`CN(C)c1cccc(Cn2ncc3c(S(N)(=O)=O)cc(NC(=O)Cc4ccccc4Cl)cc32)c1` [Compound 46, 2-(2-chlorophenyl)-N-(1-(3-(dimethylamino)benzyl)-4-sulfamoyl-1H-indazol-6-yl)acetamide]: in series [2] (class symbols), the pIC50 is 7.30 to 8.00.

Regarding `COc1ccccc1CC(=O)Nc1cc(S(N)(=O)=O)c2cn(C(F)F)nc2c1` [Compound 115, N-(2-(difluoromethyl)-4-sulfamoyl-2H-indazol-6-yl)-2-(2-methoxyphenyl)acetamide], in series [2] (class symbols), the pIC50 was 5.30 to 6.70.

For `CN(C)c1cccc(Cn2cc3c(S(N)(=O)=O)cc(NC(=O)Cc4ccccc4Cl)cc3n2)c1` [Compound 38, 2-(2-chlorophenyl)-N-(2-(3-(dimethylamino)benzyl)-4-sulfamoyl-2H-indazol-6-yl)acetamide], the pIC50 in series [2] (class symbols) is 7.30 to 8.00.

Turning to `NS(=O)(=O)c1cc(NC(=O)Cc2ccccc2Cl)cc2nn(C3COC3)cc12` [Compound 59, 2-(2-chlorophenyl)-N-(2-(oxetan-3-yl)-4-sulfamoyl-2H-indazol-6-yl)acetamide], in series [2] (class symbols), the pIC50 was 5.30 to 6.70.

As for `CCn1cc2c(S(N)(=O)=O)cc(NC(=O)Cc3ccccc3Cl)cc2n1` [Compound 4-A, (4-sulfonamide-6-N-(2-chlorophenylacetyl)-2-ethyl)-indazole], the pIC50 in series [2] (class symbols) was no less than 8.00.

For the molecule `CC(C)C(=O)n1ncc2c(S(N)(=O)=O)cc(NC(=O)Cc3ccccc3Cl)cc21` [Compound 58, 2-(2-chlorophenyl)-N-(1-isobutyryl-4-sulfamoyl-1H-indazol-6-yl)acetamide], in series [2] (class symbols), the pIC50 is 5.30 to 6.70.

In the case of `NS(=O)(=O)c1cc(NC(=O)Cc2ccccc2Cl)cc2nn(Cc3ccc(O)cc3)cc12` [Compound 34, 2-(2-chlorophenyl)-N-(2-(4-hydroxybenzyl)-4-sulfamoyl-2H-indazol-6-yl)acetamide], in series [2] (class symbols), the pIC50 is 7.30 to 8.00.
